The values below come from publication PMC12040169 (PLOS Biology, 2025).

This data set is described as follows: in vitro. The following applies: human, hela cells, % viability.
Regarding `COc1ccc(NC(=O)CC(CN(C)Cc2ccccc2)C(=O)O)cc1` (stereo not drawn) [CBK286854], the viability at 28.5 h, 10 µM is 93.5%.
With `O=C(CC(CN1CCCN(c2ncccn2)CC1)C(=O)O)NCc1ccccc1` (stereo not drawn) [CBK286856] the figure was 87.2%.
With `COc1cccc2c(C(C(=O)O)N3CCN(c4ccc(C(F)(F)F)cn4)CC3)c[nH]c12` (stereo not drawn) [CBK286857] the figure was 89.7%; with `Cc1noc(C)c1CN1CCN(CC(CC(=O)Nc2ccccc2)C(=O)O)CC1` (stereo not drawn) [CBK286858], 83.2%; with `CCn1ncc(Cn2cc(NC(=O)C3CCCCC3C(=O)O)cn2)c1C` (stereo not drawn) [CBK286859], 98.9%.
Turning to `CC(C)C1C2CCCCC2=NN1C(=O)/C=C/C(=O)O` (stereo not drawn) [CBK286862], the viability at 28.5 h, 10 µM was 93.1%.
On to `O=C(O)c1cccc(Nc2nc(Nc3ccccc3)nc(N3CCCC3)n2)c1` [CBK286863], for which the viability at 28.5 h, 10 µM was 89.8%.
To `CN1CCN(CC(CC(=O)Nc2c(F)cccc2F)C(=O)O)CC1` (stereo not drawn) [CBK286867] belongs 92%; to `C[C@@H]1C[C@H](C)CN(C(C(=O)O)c2c[nH]c3ccccc23)C1` (stereo partly drawn) [CBK286868], 94.3%; to `CC(C)(O)C#Cc1ccc(C(=O)N2CCCC2C(=O)O)s1` (stereo not drawn) [CBK286869], 79.5%.
To `O=C(O)C(Cc1c[nH]cn1)N1C(=O)C2CC=C(Cl)CC2C1=O` (stereo not drawn) [CBK286871] belongs 92.4%; to `Cc1nn(C)cc1CNC(=O)C1C2CCC(C2)C1C(=O)O` (stereo not drawn) [CBK286875], 89.3%.
To `O=C(O)C1CC(=O)N(Cc2ccccc2)C1c1ccccc1` (stereo not drawn) [CBK286876] belongs 89.1%.
Regarding `Cc1cc(C)cc(/N=C2\NC(=O)C(CC(=O)O)S2)c1` (stereo not drawn) [CBK286878], the viability at 28.5 h, 10 µM worked out at 91.4%.
For `O=C(O)CCc1nc2[nH]c(C(F)F)cc(=O)n2n1` [CBK286880], the viability at 28.5 h, 10 µM is 98.6%.
With `CC(=O)N(Cc1ccccc1)c1ccc(C(=O)O)cc1` [CBK286882] the figure was 102%; with `O=C(O)c1cc2c(s1)CN(C1CCCCC1)C2` [CBK286885], 96.2%.
To `O=C(O)CCCOc1nc(C2CC2)cc(C(F)(F)F)n1` [CBK286886] belongs 92%.
With `Cc1c(C(C)NC(=O)C2C3CCC(O3)C2C(=O)O)cnn1C` (stereo not drawn) [CBK286887] the figure was 91.4%; with `Cc1c(-c2cc(C(F)F)n3nc(CCC(=O)O)nc3n2)cnn1C` [CBK286888], 85.7%.
As for `Cc1ccccc1N1CCN(Cc2cccc(C(=O)O)c2)CC1` [CBK286890], the viability at 28.5 h, 10 µM came to 90.8%.
With `O=C(O)C1CCN(Cc2ccc(Cl)cc2)CC1` [CBK286895], the viability at 28.5 h, 10 µM worked out at 89.3%.
With `CC(C)(C)C(Cn1cccn1)NC(=O)CCC(=O)O` (stereo not drawn) [CBK286897] the figure was 81.3%; with `O=C(O)CCCC(=O)N(c1ccccc1)c1ccccc1` [CBK286901], 80.2%.
With `COc1ccccc1N1CCN(C(=O)CCCC(=O)O)CC1` [CBK286904] the figure was 80.8%; with `O=C(O)CCC(=O)NN1C(=O)c2ccccc2NC1c1ccc(F)cc1` (stereo not drawn) [CBK286905], 84%.
With `N#Cc1ccccc1NC(=O)C(CC(=O)O)NCc1ccccc1` (stereo not drawn) [CBK286907] the figure was 83.6%.
Regarding `COc1cc(C(N)C(=O)O)ccc1OCc1ccccc1` (stereo not drawn) [CBK286909], the viability at 28.5 h, 10 µM stood at 82.6%.
As for `O=C(O)CC(c1ccncc1)c1c[nH]c2ccccc12` (stereo not drawn) [CBK286913], the viability at 28.5 h, 10 µM turned out to be 90.9%.
To `O=C(O)CCn1cc(Br)c([N+](=O)[O-])n1` [CBK286916] belongs 90%; to `O=C(O)C1C2C=CC(O2)C1C(=O)NCC1CCCO1` (stereo not drawn) [CBK286917], 92.7%.
With `O=C(O)CCC(=O)N1CCN(C2CCCCC2)CC1` [CBK286918] the figure was 94.1%; with `CC(C)C(NS(=O)(=O)c1ccc2ccccc2c1)C(=O)O` (stereo not drawn) [CBK286919], 96.7%; with `Cc1ccc(-c2ccc(CCC(=O)O)n2CC(=O)O)cc1` [CBK286922], 94.8%.
With `CC1=CC(C)C2C(=O)N(c3ccc(C(=O)O)cc3)C(=O)C2C1` (stereo not drawn) [CBK286923], the viability at 28.5 h, 10 µM is 87%.
To `COc1ccc(-c2csc(Nc3cccc(C(=O)O)c3)n2)cc1` [CBK286924] belongs 86.7%; to `O=C(O)C1CCCN(C(=O)CCc2c[nH]c3ccccc23)C1` (stereo not drawn) [CBK286925], 88.6%; to `CCCC(C(=O)O)C(C)CC(=O)Nc1ccccc1Cl` (stereo not drawn) [CBK286927], 99.1%.
To `CCc1c(SCC(=O)O)nc2ccccc2c1C` [CBK286928] belongs 95.8%; to `Cc1ccc(S(=O)(=O)NC2CCC(C(=O)O)CC2)cc1` (stereo not drawn) [CBK286929], 96.4%; to `O=C(O)CCC(=O)NCc1ccc2c(c1)OCO2` [CBK286930], 91.6%.
To `CCOc1ccc(NC(=O)COc2ccccc2/C=C/C(=O)O)cc1` [CBK286935] belongs 96.6%; to `Cc1ccc(NC(=O)C2CCCCC2C(=O)O)cc1Cl` (stereo not drawn) [CBK286938], 99.9%; to `CCCC(=O)Nc1ccc(C(=O)O)cc1NC(=O)CCC` [CBK286939], 92.3%.
Turning to `CC(CCc1ccccc1)NC(=O)c1ccccc1C(=O)O` (stereo not drawn) [CBK286940], the viability at 28.5 h, 10 µM is 94.5%.
For `NCCCC(C(=O)O)C(=O)c1ccccc1-c1ccccc1` (stereo not drawn) [CBK286941], the viability at 28.5 h, 10 µM came to 99.2%.
To `CCN(CC)C(=O)Cc1cc(C(=O)O)c2ccccc2n1` [CBK286942] belongs 104%; to `O=C(O)C1C2CCC(O2)C1C(=O)N1CCN(Cc2ccc(Cl)cc2)CC1` (stereo not drawn) [CBK286943], 97.5%; to `Cc1ccc(S(=O)(=O)N2CCN(C(=O)C3C4C=CC(C4)C3C(=O)O)CC2)cc1` (stereo not drawn) [CBK286944], 106%.
With `O=C(O)CCC1=C2c3ccccc3CCN2C(=O)CC1` [CBK286945] the figure was 108%; with `O=C(O)c1oc2ccccc2c1CN1CCN(c2ccccc2)CC1` [CBK286948], 115%.
To `CC(C)(C)c1ccc(C(=O)N2CCC(C(=O)O)CC2)cc1` [CBK286949] belongs 108%.
Regarding `C/C(=C/C(=O)NCc1ccc(Cl)cc1)C(=O)O` [CBK286954], the viability at 28.5 h, 10 µM was determined as 105%.
With `O=C(O)CCC(=O)N1CCN(S(=O)(=O)c2ccc(F)cc2)CC1` [CBK286956] the figure was 93.2%.
With `O=C(O)CCCC(=O)NC12CC3CC(CC(C3)C1)C2` [CBK286958] the figure was 97.4%.
With `O=C(O)/C=C/C(=O)NN1C(=O)c2ccccc2C1=O` [CBK286962] the figure was 86.9%.
Take `O=C(O)c1c[nH]nc1-c1cccc(Br)c1` [CBK286963]: the viability at 28.5 h, 10 µM is 91.1%.
To `O=C(O)C1Cc2nc[nH]c2C(c2ccc(F)cc2)N1` (stereo not drawn) [CBK286970] belongs 86.1%.
For `O=C(O)CCCC(=O)N1CCN(C(=O)c2sc3cc(Cl)ccc3c2Cl)CC1` [CBK286973], the viability at 28.5 h, 10 µM is 91%.
To `Cc1nc2ccc(C(=O)O)cc2c2c1CC(CN)O2` (stereo not drawn) [CBK286974] belongs 97.7%.
To `O=C(Cc1ccccc1)NC(Cc1ccc(Cl)cc1)C(=O)O` (stereo not drawn) [CBK286976] belongs 92.7%; to `Cc1ccc(N(CC(=O)O)S(C)(=O)=O)cc1C` [CBK286978], 87.1%; to `N#Cc1ccc(NC(=O)CC2(CC(=O)O)CCCC2)cc1` [CBK286979], 89.5%.
To `O=C(NCc1ccc(C(=O)O)cc1)NC1CCCCC1` [CBK286980] belongs 84.5%.
Turning to `O=C(O)c1oc2ccccc2c1CSc1ccccn1` [CBK286981], the viability at 28.5 h, 10 µM came to 89.5%.
To `O=C(O)C1C2C=CC(O2)C1C(=O)NCCCc1ccccc1` (stereo not drawn) [CBK286982] belongs 93.3%.
To `O=C(O)CC(c1ccccc1)c1ccc2c(c1)OCO2` (stereo not drawn) [CBK286983] belongs 87.8%; to `O=C(O)CC(Cc1ccc(Cl)cc1)C(=O)NCc1ccccc1` (stereo not drawn) [CBK286984], 89.4%; to `Cc1ccc(S(=O)(=O)NC(C(=O)O)c2ccccc2)cc1` (stereo not drawn) [CBK286985], 106%.
To `Cc1ccc(-n2nc(C(=O)O)c(C)c(C#N)c2=O)cc1C` [CBK286987] belongs 93.3%.
For the molecule `CS(=O)(=O)N(CC(=O)O)c1cccc(C(F)(F)F)c1` [CBK286988], the viability at 28.5 h, 10 µM turned out to be 87.8%.
For `COc1ccc(-c2cc(C(=O)O)nn2C2CCS(=O)(=O)C2)cc1` (stereo not drawn) [CBK286990], the viability at 28.5 h, 10 µM came to 87.8%.
Regarding `O=C(O)CCSCC(=O)c1ccc(OC(F)F)cc1` [CBK286991], the viability at 28.5 h, 10 µM amounted to 84.6%.
To `CCc1nnc(SCc2cccc(C(=O)O)c2)o1` [CBK286993] belongs 95.7%.
To `O=C(O)C1CSC(c2ccc(-c3cccc(Cl)c3)o2)N1` (stereo not drawn) [CBK286997] belongs 97.5%.
To `Cc1cc2n(n1)C(c1ccc(C(=O)O)cc1)Nc1ccccc1-2` (stereo not drawn) [CBK287000] belongs 80.8%; to `CC(C)(C)N1C(=O)c2ccc(C(=O)Nc3ccccc3C(=O)O)cc2C1=O` [CBK287004], 112%; to `O=C(O)c1ccccc1N1C(=O)C2CC=C(Cl)CC2C1=O` (stereo not drawn) [CBK287007], 94.4%.
Take `O=C(O)c1ccc2c(c1)C1C=CCC1C(c1cccc([N+](=O)[O-])c1)N2` (stereo not drawn) [CBK287008]: the viability at 28.5 h, 10 µM stood at 94.7%.
To `O=C(N[C@@H](Cc1ccc(O)cc1)C(=O)O)OCc1ccccc1` [CBK287012] belongs 94.8%.
With `CC(C)(C)c1ccc(OCC(=O)Nc2ccc(OCC(=O)O)cc2)cc1` [CBK287013] the figure was 113%; with `Cn1cc(NC(=O)c2ccc(COc3c(F)c(F)cc(F)c3F)o2)c(C(=O)O)n1` [CBK287014], 98.5%; with `O=C(O)CCC(=O)Nc1ccccc1Sc1ccc(Cl)cc1` [CBK287015], 99.4%.
To `COc1cc(S(=O)(=O)Nc2ccc(CC(=O)O)cc2)ccc1Cl` [CBK287019] belongs 107%.

The viability is a read-out of living cells in per cent, often relative to untreated cells.
